Test results from ChEMBL document CHEMBL4418314, “Cyano-substituted heterocycles with activity as inhibitors of usp30” (2018).

Target: T1, Ubiquitin carboxyl-terminal hydrolase 30 (Homo sapiens, UniProt Q70CQ3)
T1 sequence (Q70CQ3 whole entry): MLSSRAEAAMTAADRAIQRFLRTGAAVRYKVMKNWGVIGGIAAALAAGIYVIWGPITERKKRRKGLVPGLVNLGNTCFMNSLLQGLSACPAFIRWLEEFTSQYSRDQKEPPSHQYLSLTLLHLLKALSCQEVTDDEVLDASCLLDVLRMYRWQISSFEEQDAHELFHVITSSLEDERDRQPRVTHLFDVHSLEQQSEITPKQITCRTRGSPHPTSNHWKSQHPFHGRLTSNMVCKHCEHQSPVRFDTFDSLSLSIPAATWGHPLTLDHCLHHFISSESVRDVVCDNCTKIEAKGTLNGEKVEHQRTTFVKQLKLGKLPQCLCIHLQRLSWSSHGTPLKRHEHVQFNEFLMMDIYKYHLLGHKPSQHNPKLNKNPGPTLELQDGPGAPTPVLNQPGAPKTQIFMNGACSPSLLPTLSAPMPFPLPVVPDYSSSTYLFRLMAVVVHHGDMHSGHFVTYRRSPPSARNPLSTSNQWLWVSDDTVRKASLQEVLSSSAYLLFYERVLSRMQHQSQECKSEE
Test: Inhibition of untagged human USP30 catalytic domain (57 to 517 residues) expressed in Escherichia coli using TAMRA labeled ubiquitin peptide as substrate preincubated for 30 min followed by substrate addition and measured after 2 hrs by fluorescence polarization assay

N#CN1CCC[C@](F)(C(=O)Nc2cc(-c3cccc(C(F)(F)F)c3)on2)C1
IC50: < 0.1 µM
